Laboratory results: patent US6083929A, “Extended type 1 chain glycosphingolipids as tumor-associated antigens” (The Biomembrane Institute, priority 1992, dated 2000)
Entries after “also recorded” stand apart in the source; their conditions may differ. Like-named read-outs stand apart in the source and are kept apart here.

What was measured:
MAb MNH-1 = test: TLC immunostaining with MAb MNH-1; format: binding; conditions: TLC immunostaining after enzymatic degradation of dimeric Le^a
Experimental: (§1) MAb ST-421 was established as previously described (Watanabe et al., Jpn. J. Cancer Res. (Gann) 76:43-52, 1985). MAb MNH-1, which defines type 1 chain N-acetyllactosamine (Galβ1→3GlcNAcβ1→R), was prepared in laboratory of the inventors; MAb 1B2, which defines type 2 chain N-acetyllactosamine (Galβ1→4GlcNAcβ1→R), was established as previously described (Young et al., J. Biol. Chem. 256:10967-10972, 1981). Anti-Le^a MAb was obtained from Chembiomed Ltd. (Edmonton, Alberta, Canada). […] HPTLC immunostaining was performed using Whatman HPTLC plates (HP-KF) by a modified version (Kannagi et al., J. Biol. Chem. 257:4438-4442, 1982; Kannagi et al., J. Biol. Chem. 257:14865-14874, 1982) of the method originally described by Magnani et al. (Magnani et al., Anal. Biochem. 109:399-402, 1980).
(§2) Enzymatic degradation of 1 mg dimeric Le^a was performed by sequential hydrolysis with 0.5 units of α-fucosidase (bovine kidney), 0.5 units of β-galactosidase (Cackbean), and 0.5 units of β-N-acetylglucosaminidase (bovine epididymis) (Sigma Chemical Co., St. Louis, Mo.). All reactions were carried out in 0.2 M sodium citrate (pH 4.5) for 4 hr at 37° C. in a water bath with shaking. Purification of each degradative product was performed by preparative HPTLC.
(§3) TLC immunostaining of the purified antigen component with various MAbs was performed before and after successive enzymatic degradation. […] Bands a and b are therefore assumed to be Lc6 (Table III, structure 6) and III^4 FucLc6 (structure 13), respectively, based on their reactivity with MAbs and on further enzymatic degradation patterns.

MAb 1B2 = test: TLC immunostaining with MAb 1B2; format: binding; conditions: TLC immunostaining after enzymatic degradation of dimeric Le^a
Experimental: as §1, §2, §3

MAb IMH2 = test: TLC immunostaining / solid-phase ELISA reactivity of MAb IMH2 with GSL antigens; set-up: species or system mouse; conditions: TLC immunostaining / antibody binding on solid-phase antigen, IMH2 5 μg/ml
Experimental: FIG. 8 graphically illustrates the reactivity of MAb IMH2 with various glycosphingolipids (GSLs). Serial double dilutions of various GSL antigens were added to 96-well flat-bottom assay plates (Probind plate, Falcon) in ethanol and dried. Initial concentration of GSL added to the first well was 100 ng/well. MAb binding assay was performed by ELISA as described below. Abscissa, reciprocal of antigen dilution. Ordinate, optical density reading at 490 nm. Paragloboside is abbreviated as "PG". Panel A: reactivity of type 1 chain GSLS. .circle-solid., Le^b /Le^a. .smallcircle., Le^b hexasaccharide (IV^2 FucIII^4 FucLc4). Δ, Le^a /Le^a. .quadrature. […] Panel B: reactivity of type 2 chain GSLs. .circle-solid., Le^y /Le^x (VI^2 FucV^3 FucIII^3 FucnLc6). .smallcircle., Le^y hexasaccharide ceramide (IV^2 FucIII^3 FucnLc4). Δ, Le^x /Le^x (V^3 FucIII^3 FucnLc6). .quadrature. (all of the following had similar reactivity), H1 type 2 chain (IV^2 nLc4); H2 type 2 chain (IV^2 FucnLc6); PG (nLc4); Le^x (III^3 FucnLc4). When GSL antigens were mixed with cholesterol and phosphatidylcholine in a molar ratio of 1:5:3 in ethanol and analyzed as above, the relative degrees of reactivity were essentially the same as shown in the figure.
The binding specificity of MAb IMH2 was tested by thin-layer chromatography immunostaining of various GSL antigens by the method previously described by Magnani et al. (Anal. Biochem. 109:399-402, 1980), and modified by Kannagi et al. (Cancer Res. 43:4997-5005, 1983). IMH2 reactivity was also determined by antibody binding on solid-phase antigen as follows. Each GSL antigen, dissolved in ethanol (100 ng/50 μl), was placed in a well, serially diluted with ethanol to 0.1 ng/50 μl per well in a flat-bottom 48-well plate (Falcon, Becton-Dickinson, Lincoln Park, N.J.), and dried. The dried antigen in each well was then incubated with 1% bovine serum albumin in PBS for 1 hr at room temperature, followed by reaction with IMH2 (5 μg/ml) for 18 hr at 4° C. Each well was washed with PBS, followed by incubation with biotinylated second antibody and avidin-peroxidase conjugate as prepared in the ELISA assay kit. The orange color developed in each well was read by automated "ELISA reader" (EL312 Biokinetics Reader, Biotek Instruments, Winooski, Vt.), and optical density at […] for each well was recorded.

MAb ST-421 [1] = test: TLC immunostaining of GSL with MAb ST-421; format: binding
Experimental: as §1
Extended sialyl-Le^a on the SLe^a -Le^a structure was verified by enzymatic degradation with sialidase to yield the same compournd as Le^a -Le^a as verified by thin layer chromatography as well as immunostaining with monoclonal antibody ST-421.

anti-Le^b MAbs = test: Reactivity of GSL with anti-Le^b MAbs; format: binding
Experimental: as §1

anti-Le^y MAb AH6 = test: Reactivity of GSL with anti-Le^y MAb AH6; format: binding
Experimental: as §1

MAb ST-421 [2] = test: Solid-phase radioimmunoassay of glycolipids with MAb NCC-ST-421; format: binding; conditions: ST421 10 μg/ml, initial glycolipid 100 ng
Experimental: FIG. 7 graphically illustrates the reactivity of dimeric Le^a, Le^a -Le^x and related glycolipids with MAb NCC-ST-421. Solid-phase radioimmunoassay with MAb ST-421 using serially-diluted dimeric Le^a, Le^a /Le^x, and various structurally-related glycoilpid antigens. Initial concentration of glycolipids was 100 ng. ST421 was used at a concentration of 10 μg/ml. A, IV^3 Galβ1→3[Fuc1→4]GlcNAcIII^3 FucnLc4 (Le^a /Le^x; structure 10 in Table III); B, V^4 III^4 Fuc2 Lc6 (dimeric Le^a; structure 11); C, IV^3 Galβ1→3[Fucα1→4]GlcNAcnLc4 (structure 8); D, III^4 FucLc4 (structure 1); E, IV^3 (Galβ1→3GlcNAcIII^3 FucnLc4 (structure 9); F, V^3 III^3 Fuc2 nLc6 (structure 7); G, IV^2 FucLc4 (structure 2); H, IV^3 Galβ1→3GlcNAcnLc4 (structure 4); I, IV^2 III^4 Fuc2 Lc4 (structure 3); J, nLc6 (structure 5); K, VI^2 FucnLc6 (type 2 H with nLc6 core; not shown in Table III); L, VI^2 V^3 Fuc2 nLc6 (Le^y with nLc6 core; not shown in Table III).
The solid-phase radioimmunoassay as described by Kannagi et al. (Cancer Res. 43:4997-5005, 1983) was used. […] Dimeric Le^x and various other structurally related GSLs were not reactive with ST421 (FIG. 7).

anti-Le^a MAb = test: Reactivity of GSL with anti-Le^a MAb; format: binding
Experimental: as §1, §3

## Lc6
MAb MNH-1
  reactivity with MAb MNH-1: reacted with MAb MNH-1
MAb 1B2
  reactivity with MAb 1B2: not with anti-Le^a or 1B2

## IV^2 FucLc4 [H type 1 chain]
MAb IMH2
  reactivity of MAb IMH2 with GSL (in words): did not react

## IV^2 FucnLc4 [H1]
MAb IMH2
  reactivity of MAb IMH2 with GSL (in words): did not react

## III^4 FucLc6
MAb MNH-1
  reactivity with MAb MNH-1: reacted with MAb MNH-1
MAb 1B2
  reactivity with MAb 1B2: not with anti-Le^a or 1B2

## Lc4
MAb IMH2
  reactivity of MAb IMH2 with GSL (in words): did not react
MAb MNH-1
  reactivity with MAb MNH-1: reacted strongly
MAb 1B2
  reactivity with MAb 1B2: did not react

## III^3 V^3 Fuc2 nLc6 [Dimeric Le^x]
MAb IMH2
  reactivity of MAb IMH2 with GSL (in words): reacted weakly

## III^4 V^4 Fuc2 Lc6 [dimeric Le^a]
MAb ST-421 [1]
  reactivity with MAb ST-421: stained strongly

## VI^2 FucV^3 FucIII^3 FucnLc6 [Le^y /Le^x]
MAb IMH2
  reactivity of MAb IMH2 with GSL (in words): reacts strongly; also recorded: reacted equally well; also recorded: reacts
anti-Le^b MAbs
  reactivity with anti-Le^b MAbs: not with anti-Le^b
anti-Le^y MAb AH6
  reactivity with anti-Le^y MAb AH6: reacted with AH6

## VI^2 FucnLc6 [H2]
MAb IMH2
  reactivity of MAb IMH2 with GSL (in words): did not react

## nLc4
MAb IMH2
  reactivity of MAb IMH2 with GSL (in words): did not react

## IV^3 Galβ1→3[Fuc1→4]GlcNAcIII^3 FucnLc4 [Le^a /Le^x]
MAb IMH2
  reactivity of MAb IMH2 with GSL (in words): did not react
MAb IMH2; listed as Le^a /Le^a
  reactivity of MAb IMH2 with GSL (in words): reacted weakly
MAb ST-421 [2]
  reactivity with ST-421: strongest reactivity; also recorded: clear preference for them compared to extended Le^a or simple Le^a
anti-Le^a MAb
  reactivity with anti-Le^a MAb: reacted with anti-Le^a MAb
MAb ST-421 [1]
  reactivity with MAb ST-421: reacted with anti-Le^a MAb as well as with MAb ST-421
MAb ST-421 [1]; listed as Le^a /Le^a
  reactivity with MAb ST-421: react strongly; also recorded: reacted with anti-Le^a MAb as well as with MAb ST-421
